In this assay the test system is C57BL/6 male mice. Description: In vivo delivery study of lipid nucleic acid mixture (oral gavage, RT-qPCR of PGY-sRNA-26 in tissues). Particulars: for overall delivery efficacy: delivering nucleic acids into each tissue and blood tested: 100 μg lipid:10 nmol PGY-sRNA-26, all tissues and blood tested; for oral delivery of single-stranded sRNA nucleic acids into mouse blood / oral delivery of single-stranded sRNA nucleic acids into mouse brain tissue / oral delivery of single-stranded sRNA nucleic acids into mouse femur / oral delivery of single-stranded sRNA nucleic acids into mouse heart tissue / oral delivery of single-stranded sRNA nucleic acids into mouse intestinal tissue / oral delivery of single-stranded sRNA nucleic acids into mouse kidney tissue / oral delivery of single-stranded sRNA nucleic acids into mouse liver tissue / oral delivery of single-stranded sRNA nucleic acids into mouse lung tissue / oral delivery of single-stranded sRNA nucleic acids into mouse spleen tissue / oral delivery of single-stranded sRNA nucleic acids into mouse stomach tissue / oral delivery of single-stranded sRNA nucleic acids into mouse pancreatic tissue: 100 μg lipid:10 nmol PGY-sRNA-26, sampled after 12 hours; for oral delivery of single-stranded sRNA nucleic acids into mouse heart tissue: vs free uptake group; for oral delivery of single-stranded sRNA nucleic acids into mouse intestinal tissue: intestine; for oral delivery of single-stranded sRNA nucleic acids into mouse pancreatic tissue: pancreas. Also on record: species or system mouse. Summed up: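 Stem-loop RT and SYBR qPCR, normalized to U6, measured PGY-sRNA-26 in blood and organs 12 h after gavage. Dosing was 10 nmol sRNA with 100 μg lipid, pre-mixed and heated 15 min at 90 °C, in 12-h-fasted mice, against saline and free-sRNA groups.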

With `NC(CCCC(=O)O)C(=O)O` (centres unmarked) [Lipid 530, 2-aminohexanedioic acid], the “overall delivery efficacy: delivering nucleic acids into each tissue and blood tested” value (“overall delivery efficacy” for short) is reported as “best delivery efficacy”; the “oral delivery of single-stranded sRNA nucleic acids into mouse blood” value was “can effectively orally deliver”; the “oral delivery of single-stranded sRNA nucleic acids into mouse brain tissue” value is “can effectively orally deliver”; the “oral delivery of single-stranded sRNA nucleic acids into mouse femur” value is listed as “can effectively orally deliver”. Further, the “oral delivery of single-stranded sRNA nucleic acids into mouse heart tissue” value is listed as “can effectively orally deliver”, the “oral delivery of single-stranded sRNA nucleic acids into mouse intestinal tissue” value is “can effectively orally deliver”, the “oral delivery of single-stranded sRNA nucleic acids into mouse kidney tissue” value was “can effectively orally deliver” and the “oral delivery of single-stranded sRNA nucleic acids into mouse liver tissue” value is “can effectively orally deliver”. Moreover, the “oral delivery of single-stranded sRNA nucleic acids into mouse lung tissue” value is given as “can effectively orally deliver”, the “oral delivery of single-stranded sRNA nucleic acids into mouse spleen tissue” value was “can effectively orally deliver” and the “oral delivery of single-stranded sRNA nucleic acids into mouse stomach tissue” value is on record as “can effectively orally deliver”.
Regarding `CCCCCCCCCCCCCC=O` [Lipid 594], the “overall delivery efficacy” value was “best delivery efficacy”; the “oral delivery of single-stranded sRNA nucleic acids into mouse blood” value was “can effectively orally deliver”; the “oral delivery of single-stranded sRNA nucleic acids into mouse brain tissue” value was “can effectively orally deliver”; the “oral delivery of single-stranded sRNA nucleic acids into mouse femur” value is “can effectively orally deliver”. Also, the “oral delivery of single-stranded sRNA nucleic acids into mouse heart tissue” value is reported as “can effectively orally deliver”, the “oral delivery of single-stranded sRNA nucleic acids into mouse intestinal tissue” value was “can effectively orally deliver”, the “oral delivery of single-stranded sRNA nucleic acids into mouse kidney tissue” value was “can effectively orally deliver” and the “oral delivery of single-stranded sRNA nucleic acids into mouse liver tissue” value is given as “can effectively orally deliver”. The “oral delivery of single-stranded sRNA nucleic acids into mouse lung tissue” value is reported as “can effectively orally deliver”, the “oral delivery of single-stranded sRNA nucleic acids into mouse spleen tissue” value was “can effectively orally deliver” and the “oral delivery of single-stranded sRNA nucleic acids into mouse stomach tissue” value is “can effectively orally deliver”.
Consider `CCCCCC/C=C\CCCCCCCC(=O)OCCCCCCCCCCCCCCCCCCCCCC` [Lipid 823, docosyl (Z)-hexadec-9-enoate], for which the “oral delivery of single-stranded sRNA nucleic acids into mouse blood” value is “can effectively orally deliver”, the “oral delivery of single-stranded sRNA nucleic acids into mouse brain tissue” value is given as “can effectively orally deliver”, the “oral delivery of single-stranded sRNA nucleic acids into mouse femur” value is on record as “can effectively orally deliver” and the “oral delivery of single-stranded sRNA nucleic acids into mouse heart tissue” value is recorded as “can effectively orally deliver”. Also, the “oral delivery of single-stranded sRNA nucleic acids into mouse intestinal tissue” value is listed as “can effectively orally deliver”, the “oral delivery of single-stranded sRNA nucleic acids into mouse kidney tissue” value is “can effectively orally deliver”, the “oral delivery of single-stranded sRNA nucleic acids into mouse liver tissue” value is given as “can effectively orally deliver” and the “oral delivery of single-stranded sRNA nucleic acids into mouse lung tissue” value is “can effectively orally deliver”. Besides, the “oral delivery of single-stranded sRNA nucleic acids into mouse pancreatic tissue” value is “can effectively orally deliver”, the “oral delivery of single-stranded sRNA nucleic acids into mouse spleen tissue” value is listed as “can effectively orally deliver” and the “oral delivery of single-stranded sRNA nucleic acids into mouse stomach tissue” value is “can effectively orally deliver”.
For `CC1(O)CCCC1` [Lipid 503], the “oral delivery of single-stranded sRNA nucleic acids into mouse blood” value is “can effectively orally deliver”, the “oral delivery of single-stranded sRNA nucleic acids into mouse brain tissue” value is recorded as “can effectively orally deliver”, the “oral delivery of single-stranded sRNA nucleic acids into mouse intestinal tissue” value is “can effectively orally deliver” and the “oral delivery of single-stranded sRNA nucleic acids into mouse kidney tissue” value is “can effectively orally deliver”. Further, the “oral delivery of single-stranded sRNA nucleic acids into mouse liver tissue” value is on record as “can effectively orally deliver”, the “oral delivery of single-stranded sRNA nucleic acids into mouse lung tissue” value is given as “can effectively orally deliver”, the “oral delivery of single-stranded sRNA nucleic acids into mouse spleen tissue” value is listed as “can effectively orally deliver” and the “oral delivery of single-stranded sRNA nucleic acids into mouse stomach tissue” value is “can effectively orally deliver”.
As to `CCCCCCCCCCCC(N)=O` [Lipid 611, dodecanamide], the “oral delivery of single-stranded sRNA nucleic acids into mouse femur” value is recorded as “can effectively orally deliver”, the “oral delivery of single-stranded sRNA nucleic acids into mouse spleen tissue” value is “can effectively orally deliver” and the “oral delivery of single-stranded sRNA nucleic acids into mouse stomach tissue” value was “can effectively orally deliver”.
For the compound `CCCC(=O)CC(=O)N[C@H]1CCOC1=O` [Lipid 622, 3-oxo-N-[(3S)-2-oxooxolan-3-yl]hexanamide], the “oral delivery of single-stranded sRNA nucleic acids into mouse blood” value is “can effectively orally deliver”, the “oral delivery of single-stranded sRNA nucleic acids into mouse brain tissue” value is on record as “can effectively orally deliver”, the “oral delivery of single-stranded sRNA nucleic acids into mouse femur” value is recorded as “can effectively orally deliver” and the “oral delivery of single-stranded sRNA nucleic acids into mouse intestinal tissue” value was “can effectively orally deliver”. Moreover, the “oral delivery of single-stranded sRNA nucleic acids into mouse liver tissue” value was “can effectively orally deliver”, the “oral delivery of single-stranded sRNA nucleic acids into mouse lung tissue” value is “can effectively orally deliver”, the “oral delivery of single-stranded sRNA nucleic acids into mouse spleen tissue” value is listed as “can effectively orally deliver” and the “oral delivery of single-stranded sRNA nucleic acids into mouse stomach tissue” value is on record as “can effectively orally deliver”.
On to `CCCCC/C=C\C/C=C\CCCCCCCCOC(=O)CCCCCCCCCCCCCCC` [Lipid 804, [(9Z,12Z)-octadeca-9,12-dienyl] hexadecanoate], for which the “oral delivery of single-stranded sRNA nucleic acids into mouse blood” value is on record as “can effectively orally deliver”, the “oral delivery of single-stranded sRNA nucleic acids into mouse brain tissue” value was “can effectively orally deliver”, the “oral delivery of single-stranded sRNA nucleic acids into mouse femur” value is listed as “can effectively orally deliver” and the “oral delivery of single-stranded sRNA nucleic acids into mouse heart tissue” value is on record as “can effectively orally deliver”. Further, the “oral delivery of single-stranded sRNA nucleic acids into mouse intestinal tissue” value is “can effectively orally deliver”, the “oral delivery of single-stranded sRNA nucleic acids into mouse kidney tissue” value is “can effectively orally deliver”, the “oral delivery of single-stranded sRNA nucleic acids into mouse liver tissue” value is given as “can effectively orally deliver” and the “oral delivery of single-stranded sRNA nucleic acids into mouse lung tissue” value is “can effectively orally deliver”. Also, the “oral delivery of single-stranded sRNA nucleic acids into mouse pancreatic tissue” value is recorded as “can effectively orally deliver”, the “oral delivery of single-stranded sRNA nucleic acids into mouse spleen tissue” value is “can effectively orally deliver” and the “oral delivery of single-stranded sRNA nucleic acids into mouse stomach tissue” value is listed as “can effectively orally deliver”.
For the compound `CCCCCC/C=C\CCCCCCCC(=O)OCCCCCCCCCCCCCCCCCCCCCCCC` [Lipid 819, tetracosyl (Z)-hexadec-9-enoate], the “oral delivery of single-stranded sRNA nucleic acids into mouse blood” value was “can effectively orally deliver”, the “oral delivery of single-stranded sRNA nucleic acids into mouse brain tissue” value is on record as “can effectively orally deliver”, the “oral delivery of single-stranded sRNA nucleic acids into mouse femur” value is “can effectively orally deliver” and the “oral delivery of single-stranded sRNA nucleic acids into mouse heart tissue” value was “can effectively orally deliver”. Moreover, the “oral delivery of single-stranded sRNA nucleic acids into mouse intestinal tissue” value is given as “can effectively orally deliver”, the “oral delivery of single-stranded sRNA nucleic acids into mouse kidney tissue” value was “can effectively orally deliver”, the “oral delivery of single-stranded sRNA nucleic acids into mouse liver tissue” value is “can effectively orally deliver” and the “oral delivery of single-stranded sRNA nucleic acids into mouse lung tissue” value is “can effectively orally deliver”. Also, the “oral delivery of single-stranded sRNA nucleic acids into mouse pancreatic tissue” value was “can effectively orally deliver”, the “oral delivery of single-stranded sRNA nucleic acids into mouse spleen tissue” value was “can effectively orally deliver” and the “oral delivery of single-stranded sRNA nucleic acids into mouse stomach tissue” value is on record as “can effectively orally deliver”.
`CCCCCCCCCCCC(=O)OC/C=C(\C)CC/C=C(\C)CCC=C(C)C` [Lipid 802, [(2E,6E)-3,7,11-trimethyldodeca-2,6,10-trienyl]dodecanoate]: the “overall delivery efficacy” value is “best delivery efficacy”; the “oral delivery of single-stranded sRNA nucleic acids into mouse blood” value is “can effectively orally deliver”; the “oral delivery of single-stranded sRNA nucleic acids into mouse brain tissue” value was “can effectively orally deliver”; the “oral delivery of single-stranded sRNA nucleic acids into mouse femur” value is “can effectively orally deliver”. Also, the “oral delivery of single-stranded sRNA nucleic acids into mouse heart tissue” value is given as “can effectively orally deliver”, the “oral delivery of single-stranded sRNA nucleic acids into mouse intestinal tissue” value is recorded as “can effectively orally deliver”, the “oral delivery of single-stranded sRNA nucleic acids into mouse kidney tissue” value was “can effectively orally deliver” and the “oral delivery of single-stranded sRNA nucleic acids into mouse liver tissue” value is listed as “can effectively orally deliver”. In addition, the “oral delivery of single-stranded sRNA nucleic acids into mouse lung tissue” value is “can effectively orally deliver”, the “oral delivery of single-stranded sRNA nucleic acids into mouse pancreatic tissue” value is reported as “can effectively orally deliver”, the “oral delivery of single-stranded sRNA nucleic acids into mouse spleen tissue” value is reported as “can effectively orally deliver” and the “oral delivery of single-stranded sRNA nucleic acids into mouse stomach tissue” value is on record as “can effectively orally deliver”.

Values taken from patent US20250073255A1, “USE OF FA-TYPE LIPID COMPOUNDS IN PREPARATION OF NUCLEIC ACID DELIVERY REAGENT AND RELATED PRODUCT” (BEIJING BAISHIKANG PHARMACEUTICAL TECHNOLOGY (BSJPHARMA) …, priority 2021, published 2025).
